The source of these data is US10300109B2, “Peptidomimetic macrocycles” (AILERON Therapeutics, Inc., priority 2009, dated 2019).

Read-outs that look alike come from different tables or passages of the source. Where a SMILES comes first, the peptide text is derived from it. Bridges are numbered along the chain shown (N, C = ends). [ ]: non-standard residue; d: D form. S5 = C=CCCC[C@](C)(N)C(=O)O

The target in the assay is T1, Beta-Catenin (aa 134-668) (Homo sapiens, UniProt P35222).
T1 construct: Beta-Catenin (aa 134-668, 59 KD)
T1 sequence (P35222 134-668): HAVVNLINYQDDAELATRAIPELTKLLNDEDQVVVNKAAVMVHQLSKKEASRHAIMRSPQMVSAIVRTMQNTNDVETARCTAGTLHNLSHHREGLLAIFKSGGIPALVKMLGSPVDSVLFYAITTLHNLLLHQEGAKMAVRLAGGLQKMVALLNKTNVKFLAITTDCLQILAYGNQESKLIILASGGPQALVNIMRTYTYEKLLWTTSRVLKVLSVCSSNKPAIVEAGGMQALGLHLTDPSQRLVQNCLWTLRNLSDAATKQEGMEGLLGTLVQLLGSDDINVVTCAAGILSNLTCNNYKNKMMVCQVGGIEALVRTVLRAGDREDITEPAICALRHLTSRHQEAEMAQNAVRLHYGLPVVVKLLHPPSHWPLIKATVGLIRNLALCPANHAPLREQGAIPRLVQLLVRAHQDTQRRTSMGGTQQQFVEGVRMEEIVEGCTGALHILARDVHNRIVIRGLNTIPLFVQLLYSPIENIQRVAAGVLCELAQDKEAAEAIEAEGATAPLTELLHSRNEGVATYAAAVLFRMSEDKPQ
Briefly: TCF/Beta-Catenin competitive fluorescence polarization assay. The format is binding. Conditions: competition with FAM-labelled linear probe for 6x His-tagged Beta-Catenin, room temperature, three hours. The procedure:
The following experiments are performed at room temperature unless otherwise noted. First, an assay buffer is prepared composed of 25 mM Tris-Hcl pH 7.5, 200 mM Sodium Chloride, and 5 mM CHAPS. Next, 1M DTT is added to assay buffer to a final concentration of 2 mM. […] Forty μl of this protein stock is added to all but six wells of a 96 well plate (which will serve as the free peptide and Blank). Test competitor peptides are diluted from 1 mM DMSO stocks to 2× working stocks in assay buffer. Further dilutions are made in assay buffer-DMSO as to maintain a constant DMSO concentration in all wells. […] As a benchmark, a linear, non-crosslinked peptide competitor is prepared as above but with a working concentration range of 13-0.7 μM. Fifty μl of the competitor 2× stocks are added to the 40 μl of protein solution previously transferred into the assay 96 well plate. Next, a 10× stock of the fluorescent probe is prepared. The probe is identical to the linear benchmark peptide except for the n-terminal conjugation of a FAM flourophore with Beta-Alanine spacer. A 1 mM DMSO stock of the probe is serially diluted to a final concentration of 25 nM (10×) and 10 μl of this stock is added to all wells except for those that will serve as the blank. The assay plate is stored in the dark and the reaction is allowed to run at room temperature for three hours. The reaction is then read on a Biotek Synergy 2 with the following settings: 100 ms delay, 40 measurements per well, with excitation filters of […], and emission filters of […]. Data is then analyzed in Graphpad Prism.
For orientation: Polarisation of emitted light reports the rotation of a fluorescent probe.

The mark [1] stands for this setting: read-out: Binding Activity: IC50.

On to `CC(=O)N[C@@H](CO)C(=O)N[C@@H](C)C(=O)N[C@@H](CCC(=O)O)C(=O)N[C@@H](CCCNC(=N)N)C(=O)N[C@@H](CC(=O)O)C(=O)N[C@@H](CC(C)C)C(=O)N[C@@H](C)C(=O)N[C@@H](CC(=O)O)C(=O)N[C@H](C(=O)N[C@@H](CCCCN)C(=O)N[C@@]1(C)CCCC=CCCC[C@@](C)(C(=O)N[C@@H](CCC(=O)O)C(=O)N[C@@H](CO)C(=O)N[C@@H](CCC(=O)O)C(=O)N[C@@H](CCCCN)C(=O)N[C@@H](CCCNC(=N)N)C(N)=O)NC(=O)[C@H](C(C)C)NC(=O)[C@H](CC(C)C)NC(=O)[C@H](CO)NC1=O)C(C)C` [SP12, Ac-SAERDLADVK$SLV$ESEKR-NH2] (Ac-SAERDLADVK[S5]SLV[S5]ESEKR-NH2; staple 11-15), for which, under setting [1], the concentration for half-maximal inhibition (IC50) – broadly, the midpoint of a concentration-inhibition curve – stood at 84900 nM. Regarding `CC[C@H](C)[C@H](NC(=O)[C@H](CC(C)C)NC(=O)[C@H](CCC(=O)O)NC(=O)[C@H](CC(=O)O)NC(=O)[C@H](CC(N)=O)NC(=O)[C@H](C)NC(=O)CNC(=O)[C@H](CC(C)C)NC(C)=O)C(=O)N[C@@H](CO)C(=O)N[C@@H](Cc1ccccc1)C(=O)N[C@@H](CCCCN)C(=O)N[C@@]1(C)CCCC=CCCC[C@@](C)(C(=O)N[C@@H](CCC(=O)O)C(=O)N[C@@H](CCC(=O)O)C(=O)N[C@@H](CCCCN)C(=O)N[C@@H](CO)C(=O)N[C@@H](CO)C(=O)N[C@@H](CC(N)=O)C(=O)N[C@@H](CC(N)=O)C(=O)N[C@@H](CO)C(=O)N[C@@H](CO)C(=O)N[C@@H](C)C(=O)N[C@@H](CCC(=O)O)C(=O)N[C@@H](CCCNC(=N)N)C(=O)N[C@@H](CC(=O)O)C(=O)N[C@@H](CC(C)C)C(=O)N[C@@H](C)C(=O)N[C@@H](CC(=O)O)C(=O)N[C@H](C(=O)N[C@@H](CCCCN)C(=O)N[C@@H](CO)C(=O)N[C@@H](CO)C(=O)N[C@@H](CC(C)C)C(=O)N[C@H](C(N)=O)C(C)C)C(C)C)NC(=O)[C@H](CCC(=O)O)NC(=O)CNC(=O)[C@H](CCC(=O)O)NC1=O` [SP27] (Ac-LGANDELISFK[S5]EGE[S5]EEKSSNNSSAERDLADVKSSLV-NH2; staple 12-16), the IC50 (Binding Activity: IC50 (nM)) came to 158 nM.

As for `CC[C@H](C)[C@H](NC(=O)[C@H](CC(C)C)NC(=O)[C@H](CCC(=O)O)NC(=O)[C@H](CC(=O)O)NC(=O)[C@H](CC(N)=O)NC(=O)[C@H](C)NC(=O)CNC(=O)[C@H](CC(C)C)NC(C)=O)C(=O)N[C@@H](CO)C(=O)N[C@@H](Cc1ccccc1)C(=O)N[C@@H](CCCCN)C(=O)N[C@@H](CC(=O)O)C(=O)N[C@@H](CCC(=O)O)C(=O)NCC(=O)N[C@@]1(C)CCCC=CCCC[C@@](C)(C(=O)N[C@@H](CO)C(=O)N[C@@H](CO)C(=O)N[C@@H](CC(N)=O)C(=O)N[C@@H](CC(N)=O)C(=O)N[C@@H](CO)C(=O)N[C@@H](CO)C(=O)N[C@@H](C)C(=O)N[C@@H](CCC(=O)O)C(=O)N[C@@H](CCCNC(=N)N)C(=O)N[C@@H](CC(=O)O)C(=O)N[C@@H](CC(C)C)C(=O)N[C@@H](C)C(=O)N[C@@H](CC(=O)O)C(=O)N[C@H](C(=O)N[C@@H](CCCCN)C(=O)N[C@@H](CO)C(=O)N[C@@H](CO)C(=O)N[C@@H](CC(C)C)C(=O)N[C@H](C(N)=O)C(C)C)C(C)C)NC(=O)[C@H](CCC(=O)O)NC(=O)[C@H](CCC(=O)O)NC(=O)[C@H](CCC(N)=O)NC1=O` [SP28, Ac-LGANDELISFKDEG$QEE$SSNNSSAERDLADVKSSLV-NH2] (Ac-LGANDELISFKDEG[S5]QEE[S5]SSNNSSAERDLADVKSSLV-NH2; staple 15-19), the IC50 under setting [1] worked out at 158 nM.
